10 molecules from ChEMBL document CHEMBL1201862, “PubChem BioAssay data set” (2004) can be followed below.

Some test systems named below: 786-0; BT-549; CCRF-CEM; EKVX; HCC 2998; HT-29; MCF7; MDA-N; MOLT-4; NCI-H23; NCI-H522; OVCAR-3; PC-3; RXF 393; SF-539; SK-MEL-5; SN12C; SNB-19; T47D; UACC-257.
Assay in all cases: NCI anticancer screen, dose series, 48 h

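In this assay, cells in 96-well plates receive the compound at five concentrations for 48 hours. Endpoints are linearly interpolated between the surrounding concentrations. GI50 marks 50% less growth.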 Active and inactive are the calls of the source. Cut-off read from the data, not from the text of the source: active = GI50 up to about 1.1 µM and inactive = higher. Bounds are passed on as bounds.

For the molecule `OC1(c2ccccc2)C2CC=CC2C1(c1ccccc1)c1ccccc1` (stereo not given), the GI50 in the assay on 786-0 was 61.7 µM (inactive); in the assay on BT-549, 30.3 µM (inactive); in the assay with CCRF-CEM, 27.8 µM (inactive); with EKVX, 20.5 µM (inactive); in the assay with HCC 2998 it was 19.8 µM (inactive); in the assay with HT-29 it was 18.4 µM (inactive). Besides, the GI50 in the assay with MCF7 was 26.4 µM (inactive); in the assay on MDA-N, 25 µM (inactive); in the assay with MOLT-4, 16.1 µM (inactive); in the assay with NCI-H23, 41.9 µM (inactive); in the assay with NCI-H522, 13.5 µM (inactive); with OVCAR-3, 30.8 µM (inactive). The GI50 with PC-3 is 42.6 µM (inactive); in the assay with RXF 393, 16.7 µM (inactive); in the assay with SF-539, 77.1 µM (inactive); in the assay on SK-MEL-5, 17.2 µM (inactive); in the assay on SN12C, 30.1 µM (inactive); with SNB-19, 51.3 µM (inactive). For the same molecule, the GI50 in the assay on T47D is 23.1 µM (inactive); with UACC-257, 27 µM (inactive).

Consider `CCN(CC)CCN(C)CCc1ccc(Br)cc1`, for which the GI50 was 53.7 µM (inactive) in the assay with 786-0; 42.5 µM (inactive) in the assay with BT-549; 51.8 µM (inactive) with CCRF-CEM; > 100 µM (inactive) in the assay with EKVX; > 100 µM (inactive) in the assay on HCC 2998; 24.9 µM (inactive) in the assay on HT-29. In addition, the GI50 was 48.8 µM (inactive) with MCF7; 29.7 µM (inactive) in the assay with MDA-N; 53.6 µM (inactive) with MOLT-4; > 100 µM (inactive) in the assay with NCI-H23; 69.3 µM (inactive) in the assay with NCI-H522; > 100 µM (inactive) in the assay on OVCAR-3. Also, the GI50 in the assay with PC-3 is 54 µM (inactive); in the assay with RXF 393, 38.5 µM (inactive); in the assay with SF-539, 30.8 µM (inactive); in the assay on SK-MEL-5, 17.2 µM (inactive); with SN12C, > 100 µM (inactive); in the assay on SNB-19, > 100 µM (inactive). For the same molecule, the GI50 is > 100 µM (inactive) in the assay with T47D and 37.6 µM (inactive) in the assay with UACC-257.

Regarding `O=C(O)CC1(CC(=O)O)Nc2ccccc2SC1=O`, the GI50 in the assay on 786-0, with BT-549, in the assay on CCRF-CEM, in the assay on EKVX, in the assay with HCC 2998 and in the assay with HT-29 was > 100 µM (inactive) each time. Also, the GI50 in the assay on MCF7, with MDA-N, in the assay with MOLT-4, in the assay with NCI-H23, in the assay on NCI-H522 and in the assay with OVCAR-3 was > 100 µM (inactive) throughout. Further, the GI50 in the assay on PC-3 is > 100 µM (inactive); in the assay with RXF 393, > 100 µM (inactive); with SF-539, 0.0904 µM (active); in the assay with SK-MEL-5, > 100 µM (inactive); in the assay on SN12C, > 100 µM (inactive); with SNB-19, > 100 µM (inactive). The GI50 in the assay on T47D and in the assay on UACC-257 was > 100 µM (inactive) throughout.

As to `O=C(O)c1nc2ccc(Cl)cc2[nH]c1=O`, the GI50 with 786-0, in the assay with BT-549, in the assay on CCRF-CEM, in the assay with EKVX, in the assay on HCC 2998 and in the assay with HT-29 was > 100 µM (inactive) each time. Moreover, the GI50 in the assay on MCF7, in the assay on MDA-N, in the assay on MOLT-4, in the assay on NCI-H23, in the assay on NCI-H522 and in the assay with OVCAR-3 was > 100 µM (inactive) each time. Also, the GI50 in the assay with PC-3, in the assay on RXF 393, with SF-539, with SK-MEL-5, in the assay with SN12C and in the assay on SNB-19 was > 100 µM (inactive) throughout. Also, the GI50 in the assay with T47D and in the assay with UACC-257 was > 100 µM (inactive) throughout.

For the molecule `CC(C)NC(=O)CN1CCN(C2=CC(=O)c3c(O)ccc(O)c3C2=O)CC1`, the GI50 with 786-0 is 16.4 µM (inactive); in the assay on BT-549, 17.7 µM (inactive); in the assay with CCRF-CEM, 8.65 µM (inactive); in the assay on EKVX, 19.3 µM (inactive); with HCC 2998, 16.7 µM (inactive); in the assay on HT-29 it was 3.62 µM (inactive). The GI50 is 2.71 µM (inactive) in the assay on MCF7; 2.79 µM (inactive) with MDA-N; 17 µM (inactive) with MOLT-4; 9.4 µM (inactive) in the assay on NCI-H23; 18.2 µM (inactive) in the assay with NCI-H522; 2.58 µM (inactive) in the assay on OVCAR-3. The GI50 in the assay on PC-3 is 17.5 µM (inactive); in the assay on RXF 393 it was 17.2 µM (inactive); in the assay on SF-539 it was 16.7 µM (inactive); with SK-MEL-5 it was 2.58 µM (inactive); with SN12C it was 14.5 µM (inactive); in the assay on SNB-19 it was 18.7 µM (inactive). In addition, the GI50 in the assay on T47D is 8.69 µM (inactive); with UACC-257, 7.18 µM (inactive).

`Cc1cn(C2OC(CO)C(O)C2F)c(=O)[nH]c1=O` (stereo not given): the GI50 is 87.5 µM (inactive) in the assay on 786-0; 87.1 µM (inactive) in the assay with BT-549; 12.2 µM (inactive) in the assay with CCRF-CEM; > 100 µM (inactive) with EKVX; > 100 µM (inactive) with HCC 2998; > 100 µM (inactive) in the assay with HT-29. Also, the GI50 is > 100 µM (inactive) with MCF7; > 100 µM (inactive) in the assay with MDA-N; 64.3 µM (inactive) in the assay on MOLT-4; > 100 µM (inactive) in the assay with NCI-H23; 19.3 µM (inactive) in the assay with NCI-H522; > 100 µM (inactive) in the assay on OVCAR-3. The GI50 in the assay with PC-3 was > 100 µM (inactive); in the assay on RXF 393 it was 43 µM (inactive); with SF-539 it was > 100 µM (inactive); in the assay with SK-MEL-5, > 100 µM (inactive); in the assay on SN12C it was > 100 µM (inactive); with SNB-19 it was > 100 µM (inactive). For the same molecule, the GI50 in the assay with T47D and in the assay with UACC-257 was > 100 µM (inactive) each time.

As to `C[N+]12CCCCC1C(CN1C(=O)c3ccccc3C1=O)CCC2` (stereo not given), the GI50 in the assay with 786-0, in the assay on BT-549, in the assay on CCRF-CEM, with EKVX, with HCC 2998 and in the assay with HT-29 was > 100 µM (inactive) throughout. Further, the GI50 in the assay with MCF7, with MDA-N, with MOLT-4, with NCI-H23, in the assay on NCI-H522 and with OVCAR-3 was > 100 µM (inactive) each time. Further, the GI50 in the assay on PC-3, in the assay with RXF 393, in the assay on SF-539, in the assay on SK-MEL-5, in the assay on SN12C and with SNB-19 was > 100 µM (inactive) in each case. The GI50 in the assay on T47D and with UACC-257 was > 100 µM (inactive) throughout.

Turning to `CN(C)CCNc1ccc([N+](=O)[O-])c2sc3ccccc3c(=O)c12`, the GI50 is 3.38 µM (inactive) with 786-0; 2.1 µM (inactive) with BT-549; 2.26 µM (inactive) in the assay with CCRF-CEM; 4.5 µM (inactive) in the assay with EKVX; 2.92 µM (inactive) in the assay on HCC 2998; 2.57 µM (inactive) in the assay with HT-29. Further, the GI50 in the assay with MCF7 was 3.41 µM (inactive); in the assay with MDA-N, 4.92 µM (inactive); with MOLT-4, 0.706 µM (active); in the assay on NCI-H23, 4.16 µM (inactive); with NCI-H522, 1.56 µM (inactive); with OVCAR-3, 3.68 µM (inactive). The GI50 in the assay with PC-3 was 4.11 µM (inactive); in the assay with RXF 393, 14.4 µM (inactive); in the assay with SF-539 it was 3.65 µM (inactive); in the assay with SK-MEL-5 it was 8.63 µM (inactive); in the assay with SN12C, 4.46 µM (inactive); in the assay with SNB-19 it was 5.14 µM (inactive). The values for the GI50 in the assay on T47D and with UACC-257 were 13.7 µM (inactive) and 6.28 µM (inactive), respectively.

Regarding `CC(=O)Nc1cc(Cl)cc(Cl)c1O`, the GI50 with 786-0, in the assay on BT-549, in the assay with CCRF-CEM, in the assay with EKVX, in the assay with HCC 2998 and in the assay on HT-29 was > 100 µM (inactive) each time. The GI50 in the assay on MCF7, with MDA-N, with MOLT-4, in the assay with NCI-H23, with NCI-H522 and in the assay with OVCAR-3 was > 100 µM (inactive) throughout. In addition, the GI50 in the assay with PC-3, in the assay on RXF 393, in the assay with SF-539, in the assay with SK-MEL-5, with SN12C and in the assay with SNB-19 was > 100 µM (inactive) each time. Moreover, the GI50 with T47D and in the assay with UACC-257 was > 100 µM (inactive) throughout.

On to `c1ccc(NNN2NC(c3ccccc3)C2c2ccccc2)cc1` (stereo not given), for which the GI50 is > 100 µM (inactive) in the assay on 786-0; > 100 µM (inactive) in the assay with BT-549; 59.6 µM (inactive) in the assay with CCRF-CEM; > 100 µM (inactive) with EKVX; > 100 µM (inactive) with HCC 2998; > 100 µM (inactive) in the assay with HT-29. Further, the GI50 is 98.2 µM (inactive) in the assay with MCF7; > 100 µM (inactive) in the assay on MDA-N; 55 µM (inactive) in the assay on MOLT-4; 92.3 µM (inactive) with NCI-H23; 71.9 µM (inactive) with NCI-H522; > 100 µM (inactive) in the assay on OVCAR-3. The GI50 with PC-3 was > 100 µM (inactive); in the assay with RXF 393, 24.3 µM (inactive); with SF-539 it was > 100 µM (inactive); in the assay on SK-MEL-5 it was > 100 µM (inactive); in the assay with SN12C it was > 100 µM (inactive); with SNB-19 it was > 100 µM (inactive). The GI50 with T47D is > 100 µM (inactive); with UACC-257, 87.9 µM (inactive).
